Values of other authors in patent US10576041B2, “Extended relief dosage form” (The Procter & Gamble Company, priority 2016, dated 2020).
Structures can show the parent of a compound that is named as a salt.

Details: immediate release; in the human body

SMILES | half-life [h]
COc1ccc2c(c1)[C@]13CCCC[C@@H]1[C@H](C2)N(C)CC3 [dextromethorphan hydrobromide] | 3 to 5
CN[C@@H](C)[C@@H](O)c1ccccc1 [pseudoephedrine hydrochloride] | 4.3 to 8
